Measured values from US10500169B2, “Supression of IgE production by compounds derived from traditional chinese medicine” (Sean N. Parker Foundation, priority 2014, dated 2019).

Assays:
phosphorylated-IκBα = assay: In-Cell Western of phosphorylated IκBα in PBMCs; assay type: cell-based, human; settings: 10 μg/mL, vs non-treated stimulated cells
Method: PBMCs (1×10^5 cells/mL) were cultured with or without DMF-C1 (10 μg/mL) and stimulated with or without rIL-4 (100 ng/mL) and anti-CD40 (1 μg/mL) mAb for 10 days. In-Cell Western Assay (Li-Cor, Lincoln, Nebr.) was performed following the manufacturer's instructions. In brief, cells were incubated with antibodies against phosphorylated-IκBα (p-IκBα; Cell Signaling) and β-actin (Santa Cruz Biotechnology) overnight. After washing with 0.1% Tween PBS buffer, secondary antibodies IRDye800CW donkey anti-goat and IRDye680 donkey anti-rabbit (LI-Cor) were added and incubated at room temperature for 1 hour in the dark. Plates were scanned and analyzed with Odyssey CLx Infrared Imaging System.

εGLT = assay: RT-PCR of epsilon germline transcripts in PBMCs; assay type: cell-based, human; settings: 10 μg/mL, 4 days, vs untreated cultures
Method: (§1) Quantitative real time PCR was used to detect the epsilon germline transcription. Human PBMC cells (1.5×10^6 cells/mL) were co-incubated with DMF-C1 compound (10 μg/mL) at 37° C. under 5% CO2 for 4 days. Cells were then harvested and total RNA was isolated using Trizol reagent (Gibco BRL, Rockville, Md.) following the manufacturer's instructions. The RNA concentrations were then quantified by triplicate optical density (OD) readings (Bio-Rad SmartSpect 3000; Bio-Rad, Hercules, Calif.). The reverse transcription was performed to get the cDNA using ImProm-II™ Reverse Transcriptase (Promega Corporation, Madison, Wis.) as described by the manufacturer's instructions. The RT-PCR amplification was performed using Maxima™ SYBR Green qPCR Master Mix (2×) kit (Fisher Scientific, Pittsburgh, Pa.) with epsilon germline primers or GAPDH primers. The primer sequences were listed as εGLT forward: 5′-[…]-3′; εGLT reverse: 5′-[…]-3′; GAPDH-forward: 5′-[…]-3′; GAPDH-reverse: 5′-[…]-3′; STAT3-forward: 5′-[…]-3′; STAT3-reverse: 5′-[…]-3′; T-bet-forward: 5′-[…]-3′; T-bet-reverse: 5′-[…]-3′; IFN-γ-forward: 5′-[…]-3′; IFN-γ-reverse: 5′-[…]-3′; IL-10-forward: 5′-[…]-3′; IL-10-reverse: 5′-[…]-3′. IL-5-forward. 5′-[…] TGCA-3′; IL-5-reverse: 5′-[…]-3′. All primers were synthesized by Sigma-Aldrich Corporation (St. Louis, Mo.).

IFN-γ = assay: RT-PCR gene expression in stimulated PBMCs: IFN-γ; assay type: cell-based, human; settings: 10 μg/mL
Method: as §1

B cells in Human PBMCs = assay: Apoptosis by flow cytometry, annexin V staining of CD19 B cells in PBMCs; assay type: cell-based; settings: 10 μg/ml, 2 days incubation
CACO-2 cells = assay: Berberine uptake by Caco-2 cells, LC-MS; assay type: in vitro ADME; settings: 50 μg/mL berberine, 1 hour
Method: Experiments were performed on 24 well plates for berberine uptake assay. CACO-2 cells were seeded in each well at the concentration of 1×10^5 cells/well. Cells were then allowed to grow to confluence and differentiation for 2 weeks in culture medium (DMEM+10% FBS, high glucose and sodium pyruvate and supplemented with 1% Essential Amino Acids). On the experiment day, cells were washed three times with pre-warmed HBSS and incubated with 1 ml warm HBSS for 30 minutes.
After conditioning with HBSS, cells were incubated at 37° C. with 50 μg/mL berberine with or without 250 μg/mL of nine different herbal medicines, fruits of Prunus mume (P. mume), skin of the fruits of Zanthoxylum schinifolium (Z. schinifolium), roots of Angelica sinensis (A. sinensis), rhizome of Zingiber officinalis (Z. officinalis), twigs of Cinnamomum cassia (C. cassia), bark of Phellodendron chinensis (P. chinensis), rhizome of Coptis chinensis (C. chinensis), roots of Panax ginseng (P. ginseng) and fruiting body of Ganoderma lucidum (G. lucidum). Control wells received 0, 50, 100 and 200 μg of berberine alone.
After 1 hour, cells were washed 3 times with ice-cold HBSS and scraped in 500 μl of ice cold HBSS and centrifuged. […] 75 μL of each sample was analyzed for its berberine concentration by using LC-MS. […]
All samples were analyzed using waters LC-MS system (Waters corp. MA) for berberine detection. […]

U266 cells = assay: IgE production by U266 myeloma cells, ELISA of supernatants; assay type: cell-based, human
Method: The IgE producing human U266 myeloma cell line (American Type Culture Collection; Rockville, Md.) has been used for screening pharmaceutical agents for IgE inhibitory effects, and thus this cell line was used to test the potential IgE inhibitory effects of herb extracts and purified compounds. Cells were cultured at 37° C. under 5% CO2 in complete media containing RPMI 1640 medium supplemented, 10% FBS, 1 mM sodium pyruvate, 1×10^-5 M β-ME and 0.5% penicillin-streptomycin. Cells were grown at an initial concentration of 2×10^5 cells/mL. FAHF-2 and B-FAHF-2, individual herb extracts and isolated compounds at different concentrations were added at day 0. Supernatants were harvested after 6 days culture, and IgE levels were determined by using an ELISA Kit (Mabtech Inc, OH). In each experiment, we run duplicate ELISA. In vitro experiments were repeated at least 3 times.
Human U266 myeloma cells (American Type Culture Collection; Rockville, Md.) were cultured in complete medium (RPMI 1640 medium supplemented, 10% FBS, 1 mM sodium pyruvate, 1×10^−5 M β-ME and 0.5% penicillin-streptomycin) at 37° C. under 5% CO2. Cells were grown at an initial concentration of 2×10^5 cells/mL with purpurin and alizarin from Rubia cordifolia L. at different concentrations (0.31, 0.62, 1.25, 2.5, 5 μg/mL), and with arctiin and arctigenin from Arctium lappa L. at different concentrations ([…]) for 6 days. The supernatants were harvested on day 6 for total IgE analysis using ELISA.

Foxp3 = assay: RT-PCR gene expression in stimulated PBMCs: Foxp3; assay type: cell-based, human; settings: 10 μg/mL
Method: as §1

Concentration of berberine in Cacao-2 cells, berberine standard alone (CACO-2 cells): 2950 ng/mL
IC50 (U266 cells; Homo sapiens, U-266, 144 h, 6 days culture, read-out: IC50 of inhibition of IgE production by U266 cells): 3.95 µg/mL
Structure (SMILES): COc1ccc2cc3[n+](cc2c1OC)CCc1cc2c(cc1-3)OCO2 [berberine]
phosphorylated IκBα levels (phosphorylated-IκBα): significantly suppressed
relative mRNA expression of εGLT (εGLT): significantly inhibited
mRNA level of IFN-γ (IFN-γ): trend of increase
annexin V stained B cells (B cells in Human PBMCs): about 16%
inhibition at 20 µg/mL (U266 cells; Homo sapiens, U-266, 144 h, 20 μg/mL, 6 days): 94.6%
effect on IgE production by U266 cells (in words) (U266 cells; different concentrations, 6 days): inhibited IgE production in a dose-dependent manner
mRNA level of Foxp3 (Foxp3): trend of increase
